# Patent US7691624B2, “Cancer cell detecting devices” (Academia Sinica, priority 2003, dated 2010)
# Columns and labels:
# CL1-0 cancer cells [1] = experiment: Fluorescence of stained cells in eppendorf under LED, recorded by camera; type: cell-based, human; conditions: for Numbers of cells required to distinguish cancer cells and normal cells: Cancer cells (C) CL1-0
# Description: (§1) Human lung CL1-0 cancer cells or MRC-5 normal cells were incubated with 0.5 μM of Compound 2 and acridine orange (AO). After incubation in standard culture medium for 1 hour, the non-fixed cells were removed by washing the culture three times with phosphate buffered saline (PBS). The fixed cells were collected in an eppendorf by trypsinization. The eppendorf was centrifuged and then illuminated by an light emitting diode (LED) emitting excitation light with a center wavelength at 470 nm. A conventional digital camera was used to record the fluorescence. Table 1 summarizes the numbers of cells required to distinguish cancer cells from normal cells based on fluorescence emission of Compound 2 and AO recorded by a camera under different experimental conditions. Specifically, Compound 2 and AO were incubated with four different cells in eppendorf, i.e., MRC-5 normal cells, primary fibroblast, CL1-0 cancer cells, and HeLa cancer cells.
# MRC-5 normal cells = experiment: as above; type: cell-based, human; conditions: for Numbers of cells required to distinguish cancer cells and normal cells: Normal cells (M) MRC-5
# Description: as §1
# HeLa cancer cells = experiment: as above; type: cell-based; conditions: Cancer cells (H) HeLa
# Description: as §1
# primary fibroblast = experiment: as above; type: cell-based; conditions: Normal cells (F) primary fibroblast
# Description: as §1
# CL1-0 cancer cells [2] = experiment: Stained cells spread onto cover slip, fluorescent cells counted; type: cell-based; conditions: 0.02 μM AO, 5 minutes, cover slip, LED
# Description: Further, the role of the ratio of the cells stained by Compound 2/AO in cancer diagnosis was studied. Specifically, CL1-0 cancer cells, NIH3T3 normal cells, and their 1:10 mixture were respectively stained with 0.02 μM AO and 1.5 μM Compound 2 for 5 minutes in eppendorfs. Each sample was then taken from the eppendorf and spread onto a cover slip. Fluorescence emissions were recorded by a color camera upon an LED illumination. […] A statistical histogram of the ratio of the cell stained with Compound 2/AO to the ratio of the CL1-0 cells to the sum of NIH3T3 and CL1-0 cells was plotted. Each spot on the histogram represented an average of 5-10 measurements from a single sample.
# [3] = Fluorescence analysis in aqueous solution; type: physicochemical; conditions: λex≈430 nm, no DNA
# Description: (§2) Compound 2 was mixed with eleven DNAs and subjected to fluorescence analysis at λex≈430 nm, using a Hitachi F4010 spectrofluorimeter with a 2 nm bandwidth in a 1-cm cell. Fluorescence analysis was also carried out for compound 4 in the presence of Hum24. […] Further, the fluorescence peaks for a complex of compound 2 and a DNA duplex and a complex of compound 2 and a DNA quadruplex were at ˜550 nm and ˜575 nm, respectively.
# DNA = experiment: Fluorescence analysis in the presence of a DNA; type: binding; conditions: λex≈430 nm; compound 2 with eleven DNAs, compound 4 with Hum24
# Description: as §2
# Hum24 quadruplex = experiment: Temperature-dependent CD analysis; type: binding, human
# Source text: Eight DNA quadruplexes and their complexes with compound 2 were subjected to CD analysis. CD spectra were averaged 10 scans on a Jasco J-715 spectropolarimeter with a 2 nm bandwidth. The scan speed was 50 nm/min and the step resolution was 0.2 nm.
# Further, Hum24 and its complexes with compounds 2, 4, 6, and 8 were subjected to temperature-dependent CD analysis.
structure (smiles),measurement,setting,value
"CN(C)c1ccc2cc3ccc(N(C)C)cc3nc2c1 [AO, acridine orange, reference compound]",fluorescence emission in eppendorf,"CL1-0 cancer cells [1]; 0.5 μM, 1 hour, LED 470 nm",fluorescence emission was detected
same,Numbers of cells required to distinguish cancer cells and normal cells,CL1-0 cancer cells [1]; 0.1 μM/30 min,"2,000 (C)"
same,Numbers of cells required to distinguish cancer cells and normal cells,CL1-0 cancer cells [1]; 0.5 μM/1 hr,"1,000 (C)"
same,fluorescence emission in eppendorf,"MRC-5 normal cells; 0.5 μM, 1 hour, LED 470 nm",fluorescence emission was detected
same,Numbers of cells required to distinguish cancer cells and normal cells,MRC-5 normal cells; 0.1 μM/30 min,"3,000 (M)"
same,Numbers of cells required to distinguish cancer cells and normal cells,MRC-5 normal cells; 0.5 μM/1 hr,"2,000 (M)"
same,Numbers of cells required to distinguish cancer cells and normal cells,HeLa cancer cells; 0.05 μM/1 hr,"3,000 (H)"
same,Numbers of cells required to distinguish cancer cells and normal cells,HeLa cancer cells; 0.1 μM/1 hr,"2,000 (H)"
same,Numbers of cells required to distinguish cancer cells and normal cells,primary fibroblast; 0.05 μM/1 hr,"4,000 (F)"
same,Numbers of cells required to distinguish cancer cells and normal cells,primary fibroblast; 0.1 μM/1 hr,"2,000 (F)"
same,number of stained cells showing fluorescence,CL1-0 cancer cells [2],150
"C[n+]1ccccc1C=Cc1ccc2[nH]c3ccc(C=Cc4cccc[n+]4C)cc3c2c1.[I-].[I-] [Compound 4, 3,6-bis-(2-(1-methylpyridinium-2-yl)-vinyl)-9H-carbazole diiodide]",fluorescence in an aqueous solution,[3],weak
same,increase of fluorescence intensity in the presence of a DNA,DNA,two orders of magnitude
same,melting temperature of Hum24 quadruplex in the presence of compound,Hum24 quadruplex,increased
"C[n+]1ccnc(C=Cc2ccc3[nH]c4ccc(C=Cc5c[n+](C)ccn5)cc4c3c2)c1.[I-].[I-] [Compound 6, 3,6-bis-(2-(4-methylpyrazin-4-ium-2-yl)-vinyl)-9H-carbazole diiodide]",melting temperature of Hum24 quadruplex in the presence of compound,Hum24 quadruplex,increased
"C[n+]1ccc(C=Nc2ccc3[nH]c4ccc(N=Cc5cc[n+](C)cc5)cc4c3c2)cc1.[I-].[I-] [Compound 8, N,N′-bis-((1-methylpyridinium-4-yl)methylidene)-9H-carbazole-3,6-diamine diiodide]",melting temperature of Hum24 quadruplex in the presence of compound,Hum24 quadruplex,increased
